# Measurements reported in US7598382B2, “Aryl substituted imidazoquinolines” (Coley Pharmaceutical Group, Inc., priority 2002, dated 2009).
row,melting point [°C],SMILES
1,198 to 199,"CCOCc1nc2c(N)nc3cc(-c4cncc(CO)c4)ccc3c2n1CCCOC [Example 167, 2-Ethoxymethyl-1-(3-methoxypropyl)-7-(5-hydroxymethylpyridin-3-yl)-1H-imidazo[4,5-c]quinolin-4-amine]"
2,175 to 177,"CCOCc1nc2c(N)nc3cc(-c4ccc(OC(C)C)cc4)ccc3c2n1CCCOC [Example 173, 2-Ethoxymethyl-7-[4-(2-propoxy)phenyl]-1-(3-methoxypropyl)-1H-imidazo[4,5-c]quinolin-4-amine]"
3,197 to 198,"CCOCc1nc2c(N)nc3cc(-c4cccnc4)ccc3c2n1CC1CCN(C(=O)OC(C)(C)C)CC1 [Example 176, tert-Butyl 4-{[4-amino-2-ethoxymethyl-7-(pyridin-3-yl)-1H-imidazo[4,5-c]quinolin-1-yl]methyl}piperidine-1-carboxylate]"
4,218 to 221,"COCCc1nc2c(N)nc3cc(-c4cccnc4)ccc3c2n1CCCN1CCCC1=O [Example 183, 1-{3-[4-Amino-2-(2-methoxyethyl)-7-(pyridin-3-yl)-1H-imidazo[4,5-c]quinolin-1-yl]propyl}pyrrolidin-2-one]"
5,202 to 205,"COCCc1nc2c(N)nc3ccc(-c4csc5ccccc45)cc3c2n1CCCN1CCCC1=O [Example 190, 1-{3-[4-amino-8-(benzo[b]thiophen-3-yl)-2-(2-methoxyethyl)-1H-imidazo[4,5-c]quinolin-1-yl]propyl}pyrrolidin-2-one]"
6,194 to 195,"CCOCc1nc2c(N)nc3cc(-c4ccccc4)ccc3c2n1CC1CCN(C(=O)OC(C)(C)C)CC1 [Example 191, tert-Butyl 4-[(4-amino-2-ethoxymethyl-7-phenyl-1H-imidazo[4,5-c]quinolin-1-yl)methyl]piperidine-1-carboxylate]"
7,208 to 209,"CCOCc1nc2c(N)nc3cc(-c4ccccc4)ccc3c2n1CC1CCN(C(=O)N2CCOCC2)CC1 [Example 195, 2-Ethoxymethyl-1-{[1-(morpholin-4-ylcarbonyl)piperidin-4-yl]methyl}-7-phenyl-1H-imidazo[4,5-c]quinolin-4-amine]"
8,152 to 156,"CCOCc1nc2c(N)nc3cc(-c4ccccc4)ccc3c2n1CC(C)(C)NC(=O)NC1CCCCC1 [Example 203, N-[2-(4-Amino-2-ethoxymethyl-7-phenyl-1H-imidazo[4,5-c]quinolin-1-yl)-1,1-dimethylethyl]-N′-cyclohexylurea]"
9,199 to 203,"CCOCc1nc2c(N)nc3cc(-c4ccccc4)ccc3c2n1CCCN1CCCC1=O [Example 205, 1-[3-(4-Amino-2-ethoxymethyl-7-phenyl-1H-imidazo[4,5-c]quinolin-1-yl)propyl]pyrrolidin-2-one]"
10,186 to 188,"CCOCc1nc2c(N)nc3cc(-c4cncc(OC)c4)ccc3c2n1CC(C)(C)OCCS(C)(=O)=O [Example 364, 2-Ethoxymethyl-1-{2-[2-(methanesulfonyl)ethoxy]-2-methylpropyl}-7-(5-methoxypyridin-3-yl)-1H-imidazo[4,5-c]quinolin-4-amine]"
11,205 to 206,"CCOCc1nc2c(N)nc3cc(-c4cccnc4)ccc3c2n1CCCCS(=O)(=O)N(C)C [Example 365, Dimethyl 4-[4-amino-2-ethoxymethyl-7-(pyridin-3-yl)-1H-imidazo[4,5-c]quinolin-1-yl]butane-1-sulfonamide]"

# The next lines start with the compound.
row,SMILES,melting point [°C]
1,"CCOCc1nc2c(N)nc3cc(-c4ccco4)ccc3c2n1CCCOC [Example 168, 2-Ethoxymethyl-7-(furan-2-yl)-1-(3-methoxypropyl)-1H-imidazo[4,5-c]quinolin-4-amine]",144 to 145
2,"CCOCc1nc2c(N)nc3cc(-c4ccc(Cl)cc4)ccc3c2n1CCCOC [Example 169, 7-(4-Chlorophenyl)-2-ethoxymethyl-1-(3-methoxypropyl)-1H-imidazo[4,5-c]quinolin-4-amine]",188 to 190
3,"CCOCc1nc2c(N)nc3cc(-c4ccc(C(=O)N5CCOCC5)cc4)ccc3c2n1CCCOC [Example 170, {4-[4-Amino-2-ethoxymethyl-1-(3-methoxypropyl)-1H-imidazo[4,5-c]quinolin-7-yl]phenyl}morpholin-4-ylmethanone]",163 to 165
4,"CCOCc1nc2c(N)nc3cc(-c4cccc(C(=O)NCC(C)C)c4)ccc3c2n1CCCOC [Example 171, 3-[4-Amino-2-ethoxymethyl-1-(3-methoxypropyl)-1H-imidazo[4,5-c]quinolin-7-yl]-N-(2-methylpropyl)benzamide]",209 to 210
5,"CCOCc1nc2c(N)nc3cc(-c4ccc(S(=O)(=O)CC)cc4)ccc3c2n1CCCOC [Example 172, 7-[(4-Ethanesulfonyl)phenyl]-2-ethoxymethyl-1-(3-methoxypropyl)-1H-imidazo[4,5-c]quinolin-4-amine]",156 to 158
6,"CCOCc1nc2c(N)nc3cc(-c4cccc(C(=O)N5CCOCC5)c4)ccc3c2n1CCCOC [Example 174, {3-[4-Amino-2-ethoxymethyl-1-(3-methoxypropyl)-1H-imidazo[4,5-c]quinolin-7-yl]phenyl}morpholin-4-ylmethanone]",174 to 176
7,"CCOCc1nc2c(N)nc3cc(-c4cccnc4)ccc3c2n1CC1CCN(C(=O)C2CCCO2)CC1 (centres unmarked) [Example 182, 2-Ethoxymethyl-7-(pyridin-3-yl)-1-{[1-(tetrahydrofuran-2-ylcarbonyl)piperidin-4-yl]methyl}-1H-imidazo[4,5-c]quinolin-4-amine]",191 to 192
8,"COCCc1nc2c(N)nc3cc(-c4ccncc4)ccc3c2n1CCCN1CCCC1=O [Example 184, 1-{3-[4-Amino-2-(2-methoxyethyl)-7-(pyridin-4-yl)-1H-imidazo[4,5-c]quinolin-1-yl]propyl}pyrrolidin-2-one]",232 to 235
9,"COCCc1nc2c(N)nc3cc(-c4cccc(NS(C)(=O)=O)c4)ccc3c2n1CCCN1CCCC1=O [Example 186, N-(3-{4-Amino-2-(2-methoxyethyl)-1-[3-(2-oxopyrrolidin-1-yl)propyl]-1H-imidazo[4,5-c]quinolin-7-yl}phenyl)methanesulfonamide]",210 to 213
10,"COCCc1nc2c(N)nc3ccc(-c4cccnc4)cc3c2n1CCCN1CCCC1=O [Example 188, 1-{3-[4-Amino-2-(2-methoxyethyl)-8-(pyridin-3-yl)-1H-imidazo[4,5-c]quinolin-1-yl]propyl}pyrrolidin-2-one]",221 to 224
11,"CCOCc1nc2c(N)nc3cc(-c4ccccc4)ccc3c2n1CC1CCNCC1 [Example 192, 2-Ethoxymethyl-7-phenyl-1-(piperidin-4-ylmethyl)-1H-imidazo[4,5-c]quinolin-4-amine]",142 to 143
12,"CCOCc1nc2c(N)nc3cc(-c4ccccc4)ccc3c2n1CC1CCN(S(C)(=O)=O)CC1 [Example 193, 2-Ethoxymethyl-1-{[1-(methanesulfonyl)piperidin-4-yl]methyl}-7-phenyl-1H-imidazo[4,5-c]quinolin-4-amine]",224 to 225
13,"Nc1nc2cc(-c3ccccc3)ccc2c2c1nc(CC1CC1)n2CCOc1ccccc1 [Example 196, 2-Cyclopropylmethyl-1-(2-phenoxyethyl)-7-phenyl-1H-imidazo[4,5-c]quinolin-4-amine]",188 to 189
14,"CCOCc1nc2c(N)nc3cc(-c4ccccc4)ccc3c2n1CCOc1ccccc1 [Example 197, 2-Ethoxymethyl-1-(2-phenoxyethyl)-7-phenyl-1H-imidazo[4,5-c]quinolin-4-amine]",159 to 160
15,"COc1ccc(Cc2nc3c(N)nc4cc(-c5ccccc5)ccc4c3n2CCOc2ccccc2)cc1 [Example 198, 2-(4-Methoxybenzyl)-1-(2-phenoxyethyl)-7-phenyl-1H-imidazo[4,5-c]quinolin-4-amine]",197 to 198
16,"COCCc1nc2c(N)nc3cc(-c4ccccc4)ccc3c2n1CCCCNS(C)(=O)=O [Example 199, N-{4-[4-Amino-2-(2-methoxyethyl)-7-phenyl-1H-imidazo[4,5-c]quinolin-1-yl]butyl}methanesulfonamide]",201 to 202
17,"CCCc1nc2c(N)nc3cc(-c4ccccc4)ccc3c2n1CC(C)(C)NS(C)(=O)=O [Example 200, N-[2-(4-Amino-7-phenyl-2-propyl-1H-imidazo[4,5-c]quinolin-1-yl)-1,1-dimethylethyl]methanesulfonamide]",135 to 141
18,"CCOCc1nc2c(N)nc3cc(-c4ccccc4)ccc3c2n1CC(C)(C)NC(=O)C1CCCCC1 [Example 202, Cyclohexane N-[2-(4-amino-2-ethoxymethyl-7-phenyl-1H-imidazo[4,5-c]quinolin-1-yl)-1,1-dimethylethyl]carboxamide]",195 to 198
19,"Nc1nc2cc(-c3ccccc3)ccc2c2c1ncn2CCCN1CCCC1=O [Example 204, 1-[3-(4-Amino-7-phenyl-1H-imidazo[4,5-c]quinolin-1-yl)propyl]pyrrolidin-2-one]",201 to 204
20,"COCCc1nc2c(N)nc3cc(-c4ccccc4)ccc3c2n1CCCN1CCCC1=O [Example 206, 1-{3-[4-Amino-2-(2-methoxyethyl)-7-phenyl-1H-imidazo[4,5-c]quinolin-1-yl]propyl}pyrrolidin-2-one]",187 to 191
21,"CCOCc1nc2c(N)nc3cc(-c4cccnc4)ccc3c2n1CC(C)(C)OCCS(C)(=O)=O [Example 363, 2-Ethoxymethyl-1-{2-[2-(methanesulfonyl)ethoxy]-2-methylpropyl}-7-(pyridin-3-yl)-1H-imidazo[4,5-c]quinolin-4-amine]",202 to 204
22,"CCOCc1nc2c(N)nc3cc(-c4ccccc4)ccc3c2n1CCCCS(=O)(=O)N(C)C [Example 366, Dimethyl 4-[4-amino-2-ethoxymethyl-7-phenyl-1H-imidazo[4,5-c]quinolin-1-yl]butane-1-sulfonamide]",207 to 208
23,"CCOCc1nc2c(N)nc3cc(-c4cccnc4)ccc3c2n1CCCCS(=O)(=O)NCc1ccc(OC)cc1 [Example 367, 4-Methoxybenzyl 4-[4-amino-2-ethoxymethyl-7-(pyridin-3-yl)-1H-imidazo[4,5-c]quinolin-1-yl]butane-1-sulfonamide]",230 to 231.5
24,"CCOCc1nc2c(N)nc3cc(-c4cccnc4)ccc3c2n1CCCCS(N)(=O)=O [Example 368, 4-[4-Amino-2-ethoxymethyl-7-(pyridin-3-yl)-1H-imidazo[4,5-c]quinolin-1-yl]butane-1-sulfonamide]",250 to 251.5
